# Literature values in patent US10010080B2, “Process for the production of partially polymerized antimicrobial silanol quaternary ammonium compounds” (Indusco, Ltd., priority 2015, dated 2018).
# Settings: Dow Corning material safety data sheet
compound,measurement,value
"CO[Si](CCCCl)(OC)OC [CPTMS, chloropropyptrimethoxy silane]",time weighted average (TWA) for human exposure,0.1 part per million
